In patent US20250333745A1, “METHODS AND COMPOSITIONS FOR TREATMENT OF POLYCYSTIC KIDNEY DISEASE” (Regulus Therapeutics Inc., priority 2016, published 2025):

Legend:
Pkd2-KO mice = assay: Previous study of tool anti-miR-17 in Pkd2-KO mice; format: in vivo, mouse; conditions: 20 mg/kg
Protocol: Previous studies using a research tool anti-miR-17 compound identified a role for miR-17 in PKD in two different models of PKD, the Pkd2-KO model (also known as the Pkhd1/cre; Pkd2^F/F model) and the Pcy model. The research tool modified oligonucleotide complementary to miR-17 was tested in mouse models of PKD. The anti-miR-17 compound was a fully phosphorothioated oligonucleotide 19 linked nucleosides in length (5′-CTGCACTGTAAGCACTTTG-3′; SEQ ID NO: 7), with DNA, 2′-MOE and S-cEt sugar moieties.
Pkd2-KO mice spontaneously develop polycystic kidney disease. Mice were treated with 20 mg/kg of tool anti-miR-17 compound or control oligonucleotide, or with PBS.

miR-106b = miR-106b luciferase reporter assay in HeLa cells; format: cell-based; conditions: anti-miR-17 at 100 nm
Protocol: Additional in vitro assays were conducted to further explore the potency of RG4326. A luciferase reporter assay was used to test the ability of RG4326 to inhibit the miR-17 family members miR-17, miR-20a, miR-93, and miR-106b. A luciferase reporter plasmid for each of miR-20a, miR-93, and miR-106b was constructed, with a fully complementary microRNA binding site in the 3′-UTR of the luciferase gene. HeLa cells were transfected with the microRNA mimic and its cognate luciferase reporter, followed by transfection with anti-miR-17 at a dose of 100 nm. […] As RG4326 is 100% complementary to the other miR-17 family members not tested, miR-20b and […], it is expected to inhibit these microRNAs as well.

[1] = Tissue accumulation in kidney and liver (kidney-to-liver ratio); format: in vivo, mouse; conditions: single dose 30 mg/kg, seven days
Protocol: Pharmacokinetic properties and tissue distribution of select compounds were assessed in wild type C57BL6 mice and JCK mice (an experimental model of PKD). Compound was administered to wild type mouse at a dose of 0.3, 3, or 30 mg/kg, or to JCK mice at a dose of 3, 30, or 100 mg/kg. After seven days, mice were sacrificed. Kidney and liver tissues were collected. Concentration of anti-miR-17 compound was measured in liver and kidney. Compounds that accumulate to a greater level in kidney, relative to liver (i.e., have a higher kidney-to-liver ratio) were preferred.
The miPSA was used to assess the potency of each compound, measured by the displacement score, in wild type and JCK mice. Tissue accumulation of anti-miR-17 compound was measured by extraction of compound using liquid-liquid extraction (LLE) and/or solid-phase extraction (SPE), followed by analysis of the identity and concentration of compound using ion-pairing-reversed-phase high performance liquid chromatography coupled with time-of-flight mass spectrometry (IP—RP-HPLC-TOF).
Wild type mice were administered a single dose of 3 mg/kg for the miPSA analysis, and a single dose of 30 mg/kg for the tissue accumulation analysis. JCK mice were administered a single dose of 30 mg/kg for both the miPSA and tissue accumulation analyses. Kidney tissue was collected seven days following the administration of anti-miR-17 compound. […] A higher kidney-to-liver ratio is generally preferred for a disease where the primary site of action is the kidney.

[2] = In vitro metabolic stability in mouse liver lysate; format: in vitro ADME; conditions: 24-hour incubation of RG4326
Protocol: Metabolic stability was evaluated by incubating each anti-miR-17 compound in a mouse liver lysate. After 24 hours, the percentage of intact compound remaining is calculated. Compounds that are not stable following a 24-hour incubation are potentially not stable in vivo.
Due to their reduced capacity for serum protein binding, which is a property that drives oligonucleotide distribution in the body, short oligonucleotides are not necessarily expected to have pharmacokinetic properties that make them suitable for use as drugs. RG4326 was incubated in mouse, monkey or human liver homogenate. The identity and concentration of RG4326 and metabolites was determined after a 24-hour incubation. RG4326 and metabolites were extracted using liquid-liquid extraction (LLE) and/or solid-phase extraction (SPE), which were then analyzed for identity and concentration using ion-pairing-reversed-phase high performance liquid chromatography coupled with time-of-flight mass spectrometry (IP—RP-HPLC-TOF).

[3] = Biochemical fluorescent binding assay (FBA); conditions: fold change relative to control-treated samples
Protocol: (§1) In in vitro assays, the potential for toxicity was assessed using a biochemical fluorescent binding assay (FBA) and a liver or kidney slice assay. The FBA is performed by incubating a fluorescent dye with each compound, and immediately measuring fluorescence. Highly fluorescent compounds have the potential to produce toxicity in vivo. The liver or kidney slice assay is performed by incubating a slice of tissue from a core liver sample isolated from rat. Following a 24-hour incubation, RNA is extracted from the tissue slice, and the expression levels of 18 pro-inflammatory genes are measured. An induction in pro-inflammatory gene expression indicates a potential for pro-inflammatory effects in vivo.
The potential for toxicity was assessed using a biochemical fluorescent binding assay (FBA). The FBA is performed by incubating a fluorescent dye with each compound, and immediately measuring fluorescence. Results are expressed as fold change (Linear FC) relative to control-treated samples. Highly fluorescent compounds have the potential to produce toxicity in vivo.

[4] = test system: 18 pro-inflammatory genes; assay: Ex vivo kidney slice assay; format: cell-based; conditions: rat kidney slice; 24-hour incubation; relative to PBS
Protocol: as §1
Ex vivo assays were performed with liver or kidney tissue slices. The liver or kidney slice assay is performed by incubating a slice of tissue from a core liver or kidney sample isolated from rat. Following a 24-hour incubation, RNA is extracted from the tissue slice, and the expression levels of 18 pro-inflammatory genes, including IFIT, are measured. A log 2 transformation of the fold change (Log2-FC) relative to PBS treatment was performed. An induction in pro-inflammatory gene expression indicates a potential for pro-inflammatory effects in vivo.

IFIT = assay: In vivo acute assay in Sv129 mice; design: species or system mouse; conditions: single s.c. 300 mg/kg, four days, relative to PBS
Protocol: Additional in vivo toxicology assessments were performed by administering to normal mice (Sv129 mice) a single subcutaneous injection of 300 mg/kg of anti-miR-17 compound. After four days, mice were sacrificed, blood was collected for serum chemistry analysis, liver and spleen were weighed, and RNA was isolated from kidney and liver tissues. The expression level of a pro-inflammatory gene, interferon-induced protein with tetratricopeptide repeats (IFIT), was measured.
An in vivo assay was performed in normal, Sv129 mice. A single, subcutaneous dose of 300 mg/kg of RG4326 was administered. Included as control treatments were PBS, and two anti-miRs not related to miR-17, one known to be pro-inflammatory (positive control) and one that is not pro-inflammatory (negative control). Four days later, mice were sacrificed. Kidney and liver tissue was isolated for RNA extraction. The level of a gene known to be induced during an inflammatory response, IFIT, was measured and normalized to mouse GAPDH. A log 2 transformation of the fold change (Log2-FC) relative to PBS treatment was performed.

5′-CTGCACTGTAAGCACTTTG-3′ (all phosphorothioate, sugars by position and methylation of C not given here; DNA, 2'-MOE and S-cEt sugars) [Tool anti-miR-17, reference compound]
BUN and expression of kidney injury mRNA biomarkers Kim1 and Nga1 (in words) (Pkd2-KO mice): significantly reduced
serum creatinine level and cyst index (in words) (Pkd2-KO mice): trend toward reduced
kidney-to-body weight ratio reduced relative to control treatment (Pkd2-KO mice; p=0.017): 17%

COC1C(OP(=O)(S)OC[C@H]2O[C@@H](n3cnc4c(N)ncnc43)C(F)C2OP(=O)(S)OC[C@H]2O[C@@H](n3ccc(N)nc3=O)C(F)C2OP(=O)(S)OC[C@H]2O[C@@H](n3ccc(=O)[nH]c3=O)C(F)C2OP(=O)(S)OC[C@H]2O[C@@H](n3ccc(=O)[nH]c3=O)C(OC)C2OP(=O)(S)OC[C@]23O[C@@H](n4ccc(=O)[nH]c4=O)C(O[C@H]2C)C3OP(=O)(S)OC[C@]23O[C@@H](n4cnc5c(=O)[nH]c(N)nc54)C(O[C@H]2C)C3O)[C@@H](COP(=O)(S)OC2C3O[C@@H](C)[C@]2(COP(=O)(S)OC2C4O[C@@H](C)[C@]2(CO)O[C@H]4n2cnc4c(N)ncnc42)O[C@H]3n2cnc3c(=O)[nH]c(N)nc32)O[C@H]1n1ccc(N)nc1=O (stereo in doubt) [RG4326, ASGSCMAFCFUFUMUSGS]
Mean luciferase fold derepression, miR-106b (miR-106b): 17.7
Kidney-to-Liver Ratio PKD Mice ([1]; JCK mice): 6.0
Kidney-to-Liver Ratio Wild Type Mice ([1]; wild type mice): 9.8
Ex Vivo Liver Lysate (% Analyte), Mouse [2]: 99.1%
Biochemical Fluorescence Binding Assay Relative Fluorescence Unit (Linear FC) [3]: 24.9 ± 3.1 Linear FC
Ex Vivo Kidney Slices Assay Pro-Inflammatory Signature Score (Log2-FC) [4]: −0.30 ± 0.22 Log2-FC
In Vivo Acute Assay Kidney IFIT expression (Log2-FC) (IFIT): 0.34 (n = 1) Log2-FC
In Vivo Acute Assay Liver IFIT expression (Log2-FC) (IFIT): 0.21 ± 0.08 Log2-FC
